# Test results taken from US9566312B2, “Cyclic peptides and use as medicines” (priority 2012, dated 2017).
# pIC50, pKi: −log10 of the molar value. Read-outs that look alike come from different tables or passages of the source. Starred links: 1 amine or outer side, 2 acyl side, 3 side chain; linkers in the order of their positions; H or OH if unused. Non-standard residues stand in square brackets, D forms with d. Residues, ends and D or L forms follow the SMILES beside them. X10 = C[C@H](CCCOC(=O)NC1CCN(C)CC1)[C@@H](C(=O)[*:2])N(C)[*:1]; X25 = CCN1CCO[C@H](COC[C@@H](C)[C@@H](C(=O)[*:2])N(C)[*:1])C1; X1 = COC[C@@H]1CN(C[C@H](C)[C@@H](C(=O)[*:2])N(C)[*:1])CCO1; X29 = CC(=O)N1CCN(C[C@@H](C)[C@@H](C(=O)[*:2])N(C)[*:1])CC1; X22 = C[C@H](CN1CCN(C2CCC2)CC1)[C@@H](C(=O)[*:2])N(C)[*:1]; NMe(dihydroBmt) = CCCC[C@@H](C)[C@@H](O)[C@H](NC)C(=O)O; X11 = CCN1CCN(C[C@H](C)[C@@H](C(=O)[*:2])N(C)[*:1])CC1; X71 = COC1CN(CC[C@@H](C)[C@@H](C(=O)[*:2])N(C)[*:1])C1; X17 = C[C@H](COCC(C)(C)O)[C@@H](C(=O)[*:2])N(C)[*:1]; X9 = C[C@@H](CN1CCOCC1)[C@@H](C(=O)[*:2])N(C)[*:1]; MeBmt = C/C=C/C[C@@H](C)[C@@H](O)[C@H](NC)C(=O)O; NMeL = CN[C@@H](CC(C)C)C(=O)O; NMeV = CN[C@H](C(=O)O)C(C)C; dNMeA = CN[C@H](C)C(=O)O; Abu = CC[C@H](N)C(=O)O
# Legend:
# cyclophilin A (CypA) = cyclophilin A (CypA) (Homo sapiens (Human), UniProt P62937); test: Inhibitor binding to cyclophilin proteins by SPR, CypA; set-up: unit not given here; conditions: 1:1 binding model;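 note: Single-cycle kinetics on a Biacore T200, compound injected at several concentrations for 1 min each at 50 µL/min, then 10 min dissociation, in HEPES pH 7.4 buffer with 3% DMSO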
# cyclophilin B (CypB) = cyclophilin B (CypB) (Homo sapiens (Human), UniProt P23284); test: Inhibitor binding to cyclophilin proteins by SPR, CypB; set-up: unit not given here; conditions: 1:1 binding model
# How it was run: (§1)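 SPR, single-cycle kinetics. Avi-tagged, mono-biotinylated protein on Biotin CAPture chip; running buffer 10 mM HEPES pH 7.4, 150 mM NaCl, 0.05% P20, 3% DMSO. 1 min contacts at 50 μL/min, 10 min dissociation. kon/koff/KD from 1:1 fit.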
# CypF = CypF (Homo sapiens (Human), UniProt P30405); test: Inhibitor binding to cyclophilin proteins by SPR, CypF; conditions: 1:1 binding model
# How it was run: as §1
# [1] = system: genotype 1b subgenomic HCV replicon in Huh7.5 cells; format: cell-based, hepatitis C virus; conditions: read-out: RPLN-1b IC50
# How it was run: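 Replicon inhibition read as renilla luciferase signal versus DMSO controls after 72 h incubation, in Huh7.5 cells harbouring a genotype 1b subgenomic replicon; medium phenol red-free DMEM lacking G418. CC50 determined in parallel via Cell Titer-Glo.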
# [2] = system: peripheral blood mononuclear cells (PBMC); test: Anti-proliferative or immunosuppressive activity, BrdU incorporation in PHA-stimulated PBMC; format: cell-based; conditions: PHA 3 μg/ml, 60 hour compound treatment; read-out: EMV PBMC IC50
# How it was run: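 BrdU ELISA read-out of DNA synthesis in freshly isolated PBMCs (two donors, 30,000 cells/well, X-VIVO 15). T-cell proliferation triggered with phytohemagglutinin at 3 μg/ml.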
# [3] = biological target: organic anion transporting polypeptide 1B1 (OATP1B1) (Homo sapiens (Human), UniProt Q9Y6L6); test: OATP assay in CHO-OATP1B1 cells;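 note: inhibition of probe substrate uptake into the cells, ten minutes exposure, accumulated substrate read by fluorescence once cells were lysed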
# CYP3A4 = CYP3A4 (Homo sapiens (Human), UniProt P08684); test: Time-dependent inhibition of CYP3A4; conditions: for NIM TDI kinact/Ki: probe substrate midazolam;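 for all read-outs here: Two-step in vitro assay, kobs derived from residual CYP3A4 activity versus preincubation time per concentration, then kinact and KI by nonlinear fit of kobs against concentration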
# Procedure: Method 5: Measuring Time-Dependent Inhibition of CYP3A4
# The CYP3A4 time dependent inhibition potential of various inhibitors was determined by a two step in vitro assay. […] The inactivation rate constant (kobs) was obtained by plotting the activity remaining over pre-incubation time for each concentration of compound. The maximal inactivation rate (kinact) and the inactivation potency (KI) were calculated by non linear regression analysis of the inactivation rate constant (kobs) versus compound concentrations [I] curve according to the equation kobs=[kinact·[I]]/[KI+[I]]
# [4] = genotype 1b replicon, 72 h incubation
# CypF, sequence (P30405 30-207): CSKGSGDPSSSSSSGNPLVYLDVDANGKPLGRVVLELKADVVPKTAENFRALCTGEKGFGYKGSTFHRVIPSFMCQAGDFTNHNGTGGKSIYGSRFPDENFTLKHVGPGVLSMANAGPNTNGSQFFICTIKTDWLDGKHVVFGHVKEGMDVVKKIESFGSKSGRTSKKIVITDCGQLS
# cyclophilin A (CypA), sequence (P62937 whole entry): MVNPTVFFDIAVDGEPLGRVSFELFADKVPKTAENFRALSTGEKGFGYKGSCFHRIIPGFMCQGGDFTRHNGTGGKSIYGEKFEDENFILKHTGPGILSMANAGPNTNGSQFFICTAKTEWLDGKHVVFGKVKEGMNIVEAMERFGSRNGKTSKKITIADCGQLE
# CYP3A4, sequence (P08684 whole entry): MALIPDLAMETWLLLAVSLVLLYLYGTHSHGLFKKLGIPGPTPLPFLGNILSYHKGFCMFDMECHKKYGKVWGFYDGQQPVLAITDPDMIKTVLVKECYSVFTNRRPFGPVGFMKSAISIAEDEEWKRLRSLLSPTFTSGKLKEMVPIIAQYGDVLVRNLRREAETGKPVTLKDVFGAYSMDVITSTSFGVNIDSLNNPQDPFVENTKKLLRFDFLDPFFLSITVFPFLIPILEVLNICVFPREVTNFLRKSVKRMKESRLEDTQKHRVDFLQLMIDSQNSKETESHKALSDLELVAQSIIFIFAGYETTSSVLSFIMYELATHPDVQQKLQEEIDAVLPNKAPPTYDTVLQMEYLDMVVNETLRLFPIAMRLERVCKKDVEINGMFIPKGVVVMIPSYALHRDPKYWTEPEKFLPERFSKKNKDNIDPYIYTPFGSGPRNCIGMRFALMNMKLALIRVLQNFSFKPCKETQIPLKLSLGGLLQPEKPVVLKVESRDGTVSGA
# cyclophilin B (CypB), sequence (P23284 34-216): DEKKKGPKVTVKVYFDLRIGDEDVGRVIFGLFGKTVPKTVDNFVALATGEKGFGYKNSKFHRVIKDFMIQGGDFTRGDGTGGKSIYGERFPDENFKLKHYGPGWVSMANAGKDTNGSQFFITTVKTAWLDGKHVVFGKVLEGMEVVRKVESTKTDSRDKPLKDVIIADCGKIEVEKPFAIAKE
# organic anion transporting polypeptide 1B1 (OATP1B1), sequence (Q9Y6L6 whole entry): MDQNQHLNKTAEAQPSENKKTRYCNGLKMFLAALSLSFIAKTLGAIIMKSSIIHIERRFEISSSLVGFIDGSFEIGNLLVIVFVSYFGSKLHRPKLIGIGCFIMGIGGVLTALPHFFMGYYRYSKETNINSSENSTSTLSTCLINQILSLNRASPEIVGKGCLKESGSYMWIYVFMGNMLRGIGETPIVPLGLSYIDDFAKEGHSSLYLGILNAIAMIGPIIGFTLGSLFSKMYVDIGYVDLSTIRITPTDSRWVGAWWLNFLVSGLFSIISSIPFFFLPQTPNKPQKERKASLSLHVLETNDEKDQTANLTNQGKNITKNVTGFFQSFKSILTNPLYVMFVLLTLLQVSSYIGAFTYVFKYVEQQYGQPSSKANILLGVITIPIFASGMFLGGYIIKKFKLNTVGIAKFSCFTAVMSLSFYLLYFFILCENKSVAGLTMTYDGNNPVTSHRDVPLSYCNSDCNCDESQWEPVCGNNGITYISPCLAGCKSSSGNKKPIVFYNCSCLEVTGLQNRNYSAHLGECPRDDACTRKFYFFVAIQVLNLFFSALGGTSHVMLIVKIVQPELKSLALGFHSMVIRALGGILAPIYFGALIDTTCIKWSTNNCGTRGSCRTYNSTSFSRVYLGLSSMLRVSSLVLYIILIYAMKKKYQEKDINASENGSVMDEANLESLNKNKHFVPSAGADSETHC
Compound,CypA Kd (cyclophilin A (CypA)),CypB Kd (cyclophilin B (CypB)),CypF Kd (CypF) [nM],"pIC50 [1, 4]",pIC50 [2],pIC50 [3],pKi (CYP3A4),NIM TDI kinact/Ki (CYP3A4) [M⁻¹ s⁻¹],pIC50 [1],KI (inactivation) (CYP3A4) [nM]
"C/C=C/C[C@@H](C)[C@@H](O)[C@H]1C(=O)N[C@@H](CC)C(=O)N(C)[C@H](C)C(=O)N(C)[C@@H]([C@@H](C)CN2CCN(CC)CC2)C(=O)N[C@@H](C(C)C)C(=O)N(C)[C@@H](CC(C)C)C(=O)N[C@@H](C)C(=O)N[C@H](C)C(=O)N(C)[C@@H](CC(C)C)C(=O)N(C)[C@@H](CC(C)C)C(=O)N(C)[C@@H](C(C)C)C(=O)N1C [Compound 2.17.2, 3-[D-Ala]-4[(2S,3S)-2-Amino-4-(4-ethyl-piperazin-1-yl)-3-methyl-butanoyl]-cyclosporin] (cyclo(A[dA][NMeL][NMeL][NMeV][MeBmt][Abu][dNMeA][X11]V[NMeL]))",0.6,0.5,0.5,7.46,4.84,5.29,< 4.30,,,
"C/C=C/C[C@@H](C)[C@@H](O)[C@H]1C(=O)N[C@@H](CC)C(=O)N(C)[C@H](C)C(=O)N(C)[C@@H]([C@H](C)COCC(C)(C)O)C(=O)N[C@@H](C(C)C)C(=O)N(C)[C@@H](CC(C)C)C(=O)N[C@@H](C)C(=O)N[C@H](C)C(=O)N(C)[C@@H](CC(C)C)C(=O)N(C)[C@@H](CC(C)C)C(=O)N(C)[C@@H](C(C)C)C(=O)N1C [Compound 2.7, 3-[D-Ala]-4-[(2S,3S)-4-(2-hydroxy-2-methylpropoxy)-3-methyl-2-(methylamino)butanoyl]-cyclosporin] (cyclo(A[dA][NMeL][NMeL][NMeV][MeBmt][Abu][dNMeA][X17]V[NMeL]))",2.5,1.2,0.9,,,5.74,,25,,
"C/C=C/C[C@@H](C)[C@@H](O)[C@H]1C(=O)N[C@@H](CC)C(=O)N(C)[C@H](C)C(=O)N(C)[C@@H]([C@H](C)COC[C@@H]2CN(CC)CCO2)C(=O)N[C@@H](C(C)C)C(=O)N(C)[C@@H](CC(C)C)C(=O)N[C@@H](C)C(=O)N[C@H](C)C(=O)N(C)[C@@H](CC(C)C)C(=O)N(C)[C@@H](CC(C)C)C(=O)N(C)[C@@H](C(C)C)C(=O)N1C [Compound 2.20.1, 3-[D-Ala]-4-[(2S,3S)-4-(((S)-4-ethylmorpholin-2-yl)methoxy)-3-methyl-2-(methylamino)butanoyl]-cyclosporin] (cyclo(A[dA][NMeL][NMeL][NMeV][MeBmt][Abu][dNMeA][X25]V[NMeL]))",0.7,0.7,0.5,,,5.72,,6.7,,
"CCCC[C@@H](C)[C@@H](O)[C@H]1C(=O)N[C@@H](CC)C(=O)N(C)[C@H](C)C(=O)N(C)[C@@H]([C@H](C)CN2CCN(C3CCC3)CC2)C(=O)N[C@@H](C(C)C)C(=O)N(C)[C@@H](CC(C)C)C(=O)N[C@@H](C)C(=O)N[C@H](C)C(=O)N(C)[C@@H](CC(C)C)C(=O)N(C)[C@@H](CC(C)C)C(=O)N(C)[C@@H](C(C)C)C(=O)N1C [Compound 2.5.15, 1-dihydro-3-[D-Ala]-4[(2S,3R)-2-Amino-4-(4-cyclobutyl-piperazin-1-yl)-butanoyl]-cyclosporin] (cyclo([NMe(dihydroBmt)][Abu][dNMeA][X22]V[NMeL]A[dA][NMeL][NMeL][NMeV]))",1.4,0.7,0.6,,5.12,,,,7.74,> 50000
"CCCC[C@@H](C)[C@@H](O)[C@H]1C(=O)N[C@@H](CC)C(=O)N(C)[C@H](C)C(=O)N(C)[C@@H]([C@@H](C)CN2CCOCC2)C(=O)N[C@@H](C(C)C)C(=O)N(C)[C@@H](CC(C)C)C(=O)N[C@@H](C)C(=O)N[C@H](C)C(=O)N(C)[C@@H](CC(C)C)C(=O)N(C)[C@@H](CC(C)C)C(=O)N(C)[C@@H](C(C)C)C(=O)N1C [Compound 2.17.7, 1-dihydro-3-[D-Ala]-4[(2S,3S)-2-Amino-3-methyl-4-morpholin-4-yl-butanoyl]-cyclosporin] (cyclo(A[dA][NMeL][NMeL][NMeV][NMe(dihydroBmt)][Abu][dNMeA][X9]V[NMeL]))",1.5,0.7,0.7,7.82,,,< 4.30,,,
"C/C=C/C[C@@H](C)[C@@H](O)[C@H]1C(=O)N[C@@H](CC)C(=O)N(C)[C@H](C)C(=O)N(C)[C@@H]([C@H](C)CCCOC(=O)NC2CCN(C)CC2)C(=O)N[C@@H](C(C)C)C(=O)N(C)[C@@H](CC(C)C)C(=O)N[C@@H](C)C(=O)N[C@H](C)C(=O)N(C)[C@@H](CC(C)C)C(=O)N(C)[C@@H](CC(C)C)C(=O)N(C)[C@@H](C(C)C)C(=O)N1C [Compound 2.19.8, 3-[D-Ala]-4-[(2S,3R)-3-methyl-2-(methylamino)-6-(((1-methylpiperidin-4-yl)carbamoyl)oxy)hexanoyl]-cyclosporin] (cyclo(A[dA][NMeL][NMeL][NMeV][MeBmt][Abu][dNMeA][X10]V[NMeL]))",0.8,0.4,0.4,,,5.11,< 4.30,,,
"C/C=C/C[C@@H](C)[C@@H](O)[C@H]1C(=O)N[C@@H](CC)C(=O)N(C)[C@H](C)C(=O)N(C)[C@@H]([C@H](C)CCN2CCOCC2)C(=O)N[C@@H](C(C)C)C(=O)N(C)[C@@H](CC(C)C)C(=O)N[C@@H](C)C(=O)N[C@H](C)C(=O)N(C)[C@@H](CC(C)C)C(=O)N(C)[C@@H](CC(C)C)C(=O)N(C)[C@@H](C(C)C)C(=O)N1C (stereo in doubt) [Compound 2.18.1, 3-[D-Ala]-4-[(2S,3R)-3-methyl-2-(methylamino)-5-morpholinopentanoyl]-cyclosporin]",1.5,0.8,0.9,7.66,4.79,,< 4.30,,,
"C/C=C/C[C@@H](C)[C@@H](O)[C@H]1C(=O)N[C@@H](CC)C(=O)N(C)[C@H](C)C(=O)N(C)[C@@H]([C@@H](C)CN2CCO[C@H](COC)C2)C(=O)N[C@@H](C(C)C)C(=O)N(C)[C@@H](CC(C)C)C(=O)N[C@@H](C)C(=O)N[C@H](C)C(=O)N(C)[C@@H](CC(C)C)C(=O)N(C)[C@@H](CC(C)C)C(=O)N(C)[C@@H](C(C)C)C(=O)N1C [Compound 2.17.8, 3-[D-Ala]-4[(2S,3S)-2-Amino-4-((S)-2-methoxymethyl-morpholin-4-yl)-3-methyl-butanoyl]-cyclosporin] (cyclo(A[dA][NMeL][NMeL][NMeV][MeBmt][Abu][dNMeA][X1]V[NMeL]))",1.2,0.7,0.6,7.66,4.44,,< 4.30,,,
"C/C=C/C[C@@H](C)[C@@H](O)[C@H]1C(=O)N[C@@H](CC)C(=O)N(C)[C@H](CCCN2CCOCC2)C(=O)N(C)[C@@H]([C@H](C)CS(C)(=O)=O)C(=O)N[C@@H](C(C)C)C(=O)N(C)[C@@H](CC(C)C)C(=O)N[C@@H](C)C(=O)N[C@H](C)C(=O)N(C)[C@@H](CC(C)C)C(=O)N(C)[C@@H](CC(C)C)C(=O)N(C)[C@@H](C(C)C)C(=O)N1C (stereo in doubt) [Compound 3.4.2, 3-[(R)-2-(methylamino)-5-morpholinopentanoyl]-4-[(2S,3S)-3-methyl-2-(methylamino)-4-(methylsulfonyl)butanoyl]-cyclosporin]",8.7,4.4,5,5.89,4.86,,< 4.30,,,
"C/C=C/C[C@@H](C)[C@@H](O)[C@H]1C(=O)N[C@@H](CC)C(=O)N(C)[C@H](C)C(=O)N(C)[C@@H]([C@H](C)CCN2CC(OC)C2)C(=O)N[C@@H](C(C)C)C(=O)N(C)[C@@H](CC(C)C)C(=O)N[C@@H](C)C(=O)N[C@H](C)C(=O)N(C)[C@@H](CC(C)C)C(=O)N(C)[C@@H](CC(C)C)C(=O)N(C)[C@@H](C(C)C)C(=O)N1C [Compound 2.18.5, 3-[D-Ala]-4-[(2S,3R)-5-(3-methoxyazetidin-1-yl)-3-methyl-2-(methylamino)pentanoyl]-cyclosporin] (cyclo(A[dA][NMeL][NMeL][NMeV][MeBmt][Abu][dNMeA][X71]V[NMeL]))",0.9,0.6,0.5,7.11,5.09,5.85,,,,
"C/C=C/C[C@@H](C)[C@@H](O)[C@H]1C(=O)N[C@@H](CC)C(=O)N(C)[C@H](C)C(=O)N(C)[C@@H]([C@H](C)CN2CCN(C(C)=O)CC2)C(=O)N[C@@H](C(C)C)C(=O)N(C)[C@@H](CC(C)C)C(=O)N[C@@H](C)C(=O)N[C@H](C)C(=O)N(C)[C@@H](CC(C)C)C(=O)N(C)[C@@H](CC(C)C)C(=O)N(C)[C@@H](C(C)C)C(=O)N1C [Compound 2.5.23, 3-[D-Ala]-4-[(2S,3R)-4-(4-acetylpiperazin-1-yl)-3-methyl-2-(methylamino)butanoyl]-cyclosporin] (cyclo(A[dA][NMeL][NMeL][NMeV][MeBmt][Abu][dNMeA][X29]V[NMeL]))",1.6,0.7,0.8,7.33,4.64,5.64,,,,
